# Numbered stars: 1 amine (or outer) side, 2 acyl side, 3 side chain; on linkers, the order of the positions; unused ones are H or OH. Bridge positions count the residues as written; N and C are the ends. Square brackets hold non-standard residues; d marks the D form. Peptide text beside a SMILES is read from it. * marks the point of attachment. TATA = O=C(CC[*:1])N1CN(C(=O)CC[*:2])CN(C(=O)CC[*:3])C1; X1 = O=C(O)CN1CCN(CC(=O)O)CCN([C@H](CCC(=O)*)C(=O)O)CC1; 1Nal = N[C@@H](Cc1cccc2ccccc12)C(=O)O; 2Nal = N[C@@H](Cc1ccc2ccccc2c1)C(=O)O; Hyp = O=C(O)[C@@H]1C[C@@H](O)CN1; hArg = N=C(N)NCCCC[C@H](N)C(=O)O; SeMet = C[Se]CC[C@H](N)C(=O)O; hSer = N[C@@H](CCO)C(=O)O; Nle = CCCC[C@H](N)C(=O)O
# Columns and labels:
# [1] = molecular target: T1, recombinant human nectin-4 (Homo sapiens, UniProt Q96NY8); test: FA-based competitive binding assay with probe 1a; conditions: for Hill coefficient n: competitive binding curve, variable slope
# T1 construct: close to the value determined for the complete extracellular domain of nectin-4 (0.94 nM); purchased R&D Systems 2659-N4
# T1 sequence (Q96NY8 32-349 limits assumed): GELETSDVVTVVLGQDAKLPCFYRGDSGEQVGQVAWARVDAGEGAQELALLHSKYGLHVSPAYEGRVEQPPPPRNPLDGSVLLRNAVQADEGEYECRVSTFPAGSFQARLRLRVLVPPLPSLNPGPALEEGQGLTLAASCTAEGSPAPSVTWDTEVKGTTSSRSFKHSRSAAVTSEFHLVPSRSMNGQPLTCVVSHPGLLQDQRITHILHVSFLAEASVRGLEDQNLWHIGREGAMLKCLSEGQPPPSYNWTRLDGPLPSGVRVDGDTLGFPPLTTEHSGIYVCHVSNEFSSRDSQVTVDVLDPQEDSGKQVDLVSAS
# [2] = molecular target: T2, immobilized human nectin-4 (Homo sapiens, UniProt Q96NY8); test: SPR analysis of binding kinetics; conditions: ±SEM; for kon: HBS-P+ pH 7.4, 25 °C, read-out: k on (SPR, *10^6 M^–1 s^–1); for koff: pH 7.4, HBS-P+ pH 7.4, 25 °C, read-out: k off (SPR, *10^–3 s^–1)
# T2 construct: close to the value determined for the complete extracellular domain of nectin-4 (0.94 nM); purchased R&D Systems 2659-N4
# T2 sequence (Q96NY8 32-349 limits assumed): T1 sequence (Q96NY8 32-349 limits assumed)
# Description: For this purpose, recombinant human nectin-4 was covalently immobilized on a CM5 sensor chip by EDC/NHS coupling. For analyses, the buffer composition (HBS-P+, pH 7.4) was similar to that of the FA assay; however, DMSO was completely omitted (1% DMSO for the FA assay).
# The SPR analyses were carried out on a Biacore T200 (GE Healthcare, Chicago, IL, USA) at 25 °C using CM5 sensor chips (Cytiva) and HBS-P+ as running buffer (Cytiva) at a flow of 30 μL/min unless otherwise specified and a data collection rate of 10 Hz. All flow cells (FC) were normalized, and functionalization was performed using an amine coupling Kit (Cytiva). […] Binding analyses were performed by a single-cycle kinetic on both FC. Two start-up cycles were performed at the beginning of each experimental set, comprising the injection of bicyclic peptide (50 nM) and analysis on both FC, followed by regeneration. Binding analysis for the bicyclic peptides was performed by consecutive injection of five increasing concentrations (120 s contact time for each concentration), followed by 600 s dissociation time and analysis on both FC. The regeneration was performed by sequential injection of 10 mM NaOAc (pH 5.5) for 60 s, washing the needle using HBS-P+, injection of 10 mM NaOAc (pH 5.5) for 60 s, 600 s waiting, four injections of HBS-P+ (60 s), and a final 600 s waiting for stabilization. Blank runs using only buffer (HBS-P+) instead of the sample were carried out to obtain double-referenced chromatograms. Binding analyses were performed unless otherwise stated in a concentration range between 0.16–100 nM and 1.6–1000 nM (5-fold dilution series) and analyzed in triplicate. The data were analyzed using the Biacore Evaluation software 3.2.1. […] Data were fitted to a 1:1 binding model.
# [3] = Chromatographic hydrophobicity index at immobilized artificial membrane (CHI IAM7.4) by HPLC; format: physicochemical; conditions: nonlabeled peptide, pH 7.4
# Description: Consequently, the CHI IAM7.4 values indicate that unfavorable pharmacokinetic behavior due to nonspecific binding is not to be expected.
# All commercial reagents and solvents were used without further purification, unless otherwise specified. […] The purity of compound 5, which bears selenomethionine, was lower due to the lability to oxidation (as discussed above). The HPLC-based determination of chromatographic hydrophobicity indices at an immobilized artificial membrane was performed as previously described according to the method developed by Valko et al.
# HT-1376 cells = test: Saturation binding assay on intact cells; format: cell-based, human; conditions: ^64Cu-labeled ligand, intact HT-1376 cells, 60 min, PBS wash; apparent; ±SD
# Description: For the saturation binding assay, total and nonspecific binding were determined as described above using 10 different radioligand concentrations ([…]) prepared by serial 1:1 dilution. Plots of “total binding” = f(radioligand) were analyzed by nonlinear regressions using the model of “one site-total, accounting for ligand depletion” as implemented in GraphPad Prism, and Plots of “nonspecific binding” = f(radioligand) were analyzed by linear regressions.
# [4] = n-Octanol/PBS distribution coefficient (logD 7.4); format: physicochemical; conditions: for logD: pH 7.4, logD 7.4
# Description: The determination of logD 7.4 was performed in triplicate. A sample of the ^64Cu/^68Ga-labeled compound containing ≈1 MBq in a volume of 1 μL was added to a 1.5 mL Eppendorf tube containing 400 μL of PBS (pH 7.4) and 400 μL of n-Octanol (the phases were presaturated with each other). The tube was vortexed vigorously for 1 min and then centrifuged at 16,100g for 4 min to separate the phases. For sampling from the aqueous phase, the pipette tip was discharged while passing through the octanol layer. Then, the sample was taken within the aqueous phase. Any residual liquid was carefully removed by moving the tip along the inner wall of an Eppendorf tube. The radioactivity in a defined volume of each layer was measured (ISOMED 2100). The distribution coefficient was expressed as the logarithm of the ratio of counts per minute (cpm) measured in the n-Octanol phase to the cpm measured in the PBS phase.
# [5] = molecular target: human serum albumin (HSA) (Homo sapiens, UniProt P02768); format: in vitro ADME
# From the text: page 20: S20 Figure S11: Assessment of plasma protein and HSA binding for [64Cu]Cu-1e and [64Cu]Cu-4 by ultrafiltration […] PBS), and undiluted human plasma. B) Plot of “percentage of retained activity in filter” = f([HSA]) for [64Cu]Cu-4 with nonlinear regression according to the Morrison equation ( total […] labeling). For details on the experimental method and regression analysis see ref. 1. PBS HSA Plasma 0% 20% 40% 60% 80% 47 64 50 percentage of retained activity in filter 102 103 104 105 106 107 0 20 40 60 80 100 [HSA] (nM) percentage of retained activity in filter […] A B (1 picture or pasted object on this page, not shown here)
# [6] = tested on: HT-1376-derived tumor xenograft model; test: Small animal PET/CT imaging; design: species or system mice; conditions: mouse, in vivo
# Outline: (§1)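 NMRI nude mice bore subcutaneous HT-1376 xenografts (5 × 10^6 cells in 50% Matrigel), imaged at ~200 mm^3 tumour volume. Radioligand (molar activity 25 MBq/nmol; ~9 MBq, ≈0.46 nmol) injected i.v. via tail vein, with 75 nmol blocking substance co-injected for blocking; dynamic 2 h PET from injection plus CT for attenuation correction.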
# [7] = Oxidation stability in H2O2 (radio-HPLC)
# Description: To avoid a too rapid degradation of radiolabeled peptides, a low H2O2 concentration of 0.0012% was chosen. […] In this context, there are three further thioether functionalities in each peptide due to the cyclization of the Cys residues with TATA. In Figure , the curves for the time-dependent degradation of the intact radioligands are depicted, from which the respective half-lives were calculated.
# The stability toward oxidizing conditions was assessed with H2O2. For this purpose, the radioligands (2 nmol, 48 μL of labeling mixture) were treated with H2O2 (2 μL of 0.03%, final concentration of 0.0012%) at ambient temperature. At distinct time points (3, 5, and 7 h), an aliquot of 2 μL was withdrawn and diluted with 48 μL of a mixture named “Supersol,” which consists of 20% ethanol, 0.5% Triton X-100, 5 mM EDTA, 0.5 mM o-phenanthroline, and 0.1% saponin. […] The resulting solutions were analyzed by radio-HPLC (same system as that used for analyzing the ^64Cu-labelings).
# [8] = Small animal PET/CT imaging; design: species or system mice; conditions: mouse, in vivo
# Outline: as §1
# human serum albumin (HSA), sequence (P02768 25-609): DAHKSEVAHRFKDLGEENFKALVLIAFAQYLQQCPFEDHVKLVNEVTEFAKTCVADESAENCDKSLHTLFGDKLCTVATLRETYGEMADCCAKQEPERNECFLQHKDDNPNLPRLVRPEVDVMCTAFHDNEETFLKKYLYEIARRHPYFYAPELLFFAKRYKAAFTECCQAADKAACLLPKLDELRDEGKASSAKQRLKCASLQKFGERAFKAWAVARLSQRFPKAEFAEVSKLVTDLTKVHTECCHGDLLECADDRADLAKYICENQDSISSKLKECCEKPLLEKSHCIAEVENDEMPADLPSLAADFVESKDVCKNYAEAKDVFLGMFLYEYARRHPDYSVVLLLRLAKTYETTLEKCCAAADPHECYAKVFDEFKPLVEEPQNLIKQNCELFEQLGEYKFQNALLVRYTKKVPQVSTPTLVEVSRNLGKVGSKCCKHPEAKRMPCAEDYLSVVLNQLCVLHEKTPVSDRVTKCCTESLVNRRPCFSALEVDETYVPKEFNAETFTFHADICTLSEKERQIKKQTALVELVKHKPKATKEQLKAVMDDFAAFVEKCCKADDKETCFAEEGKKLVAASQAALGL
Structure (SMILES),Hill coefficient n [1],kon [2] [M⁻¹ s⁻¹],koff [2] [s⁻¹],CHI IAM7.4 [3],logD [4],Percent fast [%] [6] [%],time of highest tumor uptake [6],half-life [7] [min],other results
CSCC[C@@H]1NC(=O)[C@@H]2CSCCC(=O)N3CN(CN(C3)C(=O)CCSC[C@H](NC(=O)CC[C@H](C(=O)O)N3CCN(CC(=O)O)CCN(CC(=O)O)CC3)C(=O)N3CCC[C@H]3C(=O)N[C@@H](Cc3cccc4ccccc34)C(=O)N[C@H](CC(=O)O)C(=O)N2)C(=O)CCSC[C@@H](C(N)=O)NC(=O)[C@H](Cc2c[nH]c3ccccc23)NC(=O)[C@@H]2C[C@@H](O)CN2C(=O)[C@@H]2CCCN2C(=O)[C@H]([C@@H](C)O)NC(=O)[C@H](CO)NC(=O)[C@H](Cc2c[nH]c3ccccc23)NC(=O)[C@H](CC(=O)O)NC(=O)[C@H](CCCNC(=N)N)NC1=O [compound 10] (X1-CP[1Nal][dD]CMRDWSTP[Hyp]WC-NH2; linker 1-5-15 via TATA),2.05,1.11e+06,0.00278,19.9,–,–,–,–,–
CSCC[C@@H]1NC(=O)[C@@H]2CSCCC(=O)N3CN(CN(C3)C(=O)CCSC[C@H](NC(=O)CC[C@H](C(=O)O)N3CCN(CC(=O)O)CCN(CC(=O)O)CC3)C(=O)N3CCC[C@H]3C(=O)N[C@@H](Cc3ccc4ccccc4c3)C(=O)N[C@H](CC(=O)O)C(=O)N2)C(=O)CCSC[C@@H](C(N)=O)NC(=O)[C@H](Cc2c[nH]c3ccccc23)NC(=O)[C@@H]2C[C@@H](O)CN2C(=O)[C@@H]2CCCN2C(=O)[C@H]([C@@H](C)O)NC(=O)[C@H](CO)NC(=O)[C@H](Cc2c[nH]c3ccccc23)NC(=O)[C@H](CC(=O)O)NC(=O)[C@H](CCCNC(=N)N)NC1=O [8a] (X1-CP[2Nal][dD]CMRDWSTP[Hyp]WC-NH2; linker 1-5-15 via TATA),0.99,680000,0.0433,20.3,-2.48,–,–,–,fold lower binding affinity compared to 1e ([1]; FA K d ratio): 30 fold; Kd (HT-1376 cells): 51.7 nM
C[Se]CC[C@@H]1NC(=O)[C@@H]2CSCCC(=O)N3CN(CN(C3)C(=O)CCSC[C@H](NC(=O)CC[C@H](C(=O)O)N3CCN(CC(=O)O)CCN(CC(=O)O)CC3)C(=O)N3CCC[C@H]3C(=O)N[C@@H](Cc3cccc4ccccc34)C(=O)N[C@H](CC(=O)O)C(=O)N2)C(=O)CCSC[C@@H](C(N)=O)NC(=O)[C@H](Cc2c[nH]c3ccccc23)NC(=O)[C@@H]2C[C@@H](O)CN2C(=O)[C@@H]2CCCN2C(=O)[C@H]([C@@H](C)O)NC(=O)[C@H](CO)NC(=O)[C@H](Cc2c[nH]c3ccccc23)NC(=O)[C@H](CC(=O)O)NC(=O)[C@H](CCCCNC(=N)N)NC1=O [compound 5] (X1-CP[1Nal][dD]C[SeMet][hArg]DWSTP[Hyp]WC-NH2; linker 1-5-15 via TATA),1.69,–,–,19.5,–,–,–,–,"logD 7.4 ([4]; ^64Cu-labeled ligand, n-octanol/PBS pH 7.4, ±SD): –2.37 (±0.07)"
CSCC[C@@H]1NC(=O)[C@@H]2CSCCC(=O)N3CN(CN(C3)C(=O)CCSC[C@H](NC(=O)CC[C@H](C(=O)O)N3CCN(CC(=O)O)CCN(CC(=O)O)CC3)C(=O)N3CCC[C@H]3C(=O)N[C@@H](Cc3cccc4ccccc34)C(=O)N[C@H](CC(=O)O)C(=O)N2)C(=O)CCSC[C@@H](C(N)=O)NC(=O)[C@H](Cc2c[nH]c3ccccc23)NC(=O)[C@@H]2C[C@@H](O)CN2C(=O)[C@@H]2CCCN2C(=O)[C@H]([C@@H](C)O)NC(=O)[C@H](CO)NC(=O)[C@H](Cc2c[nH]c3ccccc23)NC(=O)[C@H](CC(=O)O)NC(=O)[C@H](CCCCNC(=N)N)NC1=O [[^64Cu]Cu-1e] [metal not drawn],–,–,–,–,–,86.95 ±2.10,≈ 6 min,–,binding to HSA or other plasma proteins [5]: negligible binding capability
"CCCC[C@@H]1NC(=O)[C@@H]2CSCCC(=O)N3CN(CN(C3)C(=O)CCSC[C@H](NC(=O)CC[C@H](C(=O)O)N3CCN(CC(=O)O)CCN(CC(=O)O)CC3)C(=O)N3CCC[C@H]3C(=O)N[C@@H](Cc3cccc4ccccc34)C(=O)N[C@H](CC(=O)O)C(=O)N2)C(=O)CCSC[C@@H](C(N)=O)NC(=O)[C@H](Cc2c[nH]c3ccccc23)NC(=O)[C@@H]2C[C@@H](O)CN2C(=O)[C@@H]2CCCN2C(=O)[C@H]([C@@H](C)O)NC(=O)[C@H](CO)NC(=O)[C@H](Cc2c[nH]c3ccccc23)NC(=O)[C@H](CC(=O)O)NC(=O)[C@H](CCCCNC(=N)N)NC1=O [[^64Cu]Cu-3a, metal not drawn] (X1-CP[1Nal][dD]C[Nle][hArg]DWSTP[Hyp]WC-NH2; linker 1-5-15 via TATA)",–,–,–,–,-2.53,85.43 ±1.50,≈ 6 min,1040,body retention at 2 h p.i. [6]: 70%; kidney uptake (SUVmean) at 2 h p.i. [6]: 25; half-life ([8]; Blood half life fast [min]): 1.24 ± 0.15 min; half-life ([8]; Blood half life slow [min]): 38.2 ± 2.68 min
"COCC[C@@H]1NC(=O)[C@@H]2CSCCC(=O)N3CN(CN(C3)C(=O)CCSC[C@H](NC(=O)CC[C@H](C(=O)O)N3CCN(CC(=O)O)CCN(CC(=O)O)CC3)C(=O)N3CCC[C@H]3C(=O)N[C@@H](Cc3cccc4ccccc34)C(=O)N[C@H](CC(=O)O)C(=O)N2)C(=O)CCSC[C@@H](C(N)=O)NC(=O)[C@H](Cc2c[nH]c3ccccc23)NC(=O)[C@@H]2C[C@@H](O)CN2C(=O)[C@@H]2CCCN2C(=O)[C@H]([C@@H](C)O)NC(=O)[C@H](CO)NC(=O)[C@H](Cc2c[nH]c3ccccc23)NC(=O)[C@H](CC(=O)O)NC(=O)[C@H](CCCCNC(=N)N)NC1=O [[^64Cu]Cu-4, metal not drawn] (X1-CP[1Nal][dD]C[hSer](Me)[hArg]DWSTP[Hyp]WC-NH2; linker 1-5-15 via TATA)",–,–,–,–,–,–,–,412,"Kd ([5]; human): > 600000 nM; half-life ([8]; distribution phase, TAC for heart, two-phase decay, read-out: Blood half life fast): 1.3 ± 0.17 min; half-life ([8]; elimination phase, TAC for heart, two-phase decay, read-out: Blood half life slow): 32 ± 2.09 min"

# Reference: PMC12557367, ““Precision on Two Wheels”–Structural Refinement of ^64Cu- and ^68Ga-Labeled Bicyclic Peptides Targeting Nectin‑4 for Improved Tumor Imaging: From Preclinical Development to First-in-Human Application” (Journal of Medicinal Chemistry, 2025)
